This assay concerns the target T1, human GLP-1 receptor (Homo sapiens, UniProt P43220).
T1 construct: expressed in transfected cells; host or cells: BHK cells (parent BHKTS13), clone FCW467-12A/KZ10-1, with CRE luciferase
The assay can be described thus: GLP-1 receptor potency, CRE luciferase reporter gene assay in BHK cells. The class given is cell-based. The settings on record: BHK cells expressing human GLP-1 receptor, read-out: EC50 GLP-1R. How it is done: The purpose of this example was to test the potency, of the glucagon derivatives of the invention, in vitro. The in vitro potency is the measure of human GLP-1 receptor or glucagon receptor activation, respectively, in a whole cell assay.
In vitro potency was determined by measuring the response of human GLP-1 or glucagon receptor, respectively, in a reporter gene assay. The assay was performed in a stably transfected BHK cell line that expresses either the human GLP-1 receptor or the human glucagon receptor and contains the DNA for the cAMP response element (CRE) coupled to a promoter and the gene for firefly luciferase (CRE luciferase). […] When assay incubation was completed, the luciferase substrate (luciferin) was added and the enzyme converted luciferin to oxyluciferin and produces bioluminescence. The luminescence was measured as the readout for the assay.
The cells used in this assay (clone FCW467-12A/KZ10-1) were BHK cells with BHKTS13 as a parent cell line. The cells were derived from a clone (FCW467-12A) that expresses the human GLP-1 receptor and were established by further transfection with
CRE luciferase to obtain the current clone.
The cells were cultured at 5% CO2 in DMEM medium with 10% FBS, 1×GlutaMAX, 1 mg/ml G418, 240 nM MTX (methotrexate) and 1% pen/strep (penicillin/streptomycin). They were aliquoted and stored in liquid nitrogen. Before each assay, an aliquot was taken up and washed three times in PBS before being suspended at the desired concentration in assay medium. For 96-well plates the suspension was made to give a final concentration of 5×10EE3 cells/well.
The following chemicals were used in the assay: Pluronic F-68 (10%) (Gibco 2404), ovalbumin (Sigma A5503), DMEM w/o phenol red (Gibco 11880-028), 1 M Hepes (Gibco 15630), Glutamax 100× (Gibco 35050) and steadylite plus (PerkinElmer 6016757).
Assay Medium consisted of DMEM w/o phenol red, 10 mM Hepes, lx GlutaMAX, 2% Ovalbumin and 0.2% Pluronic F-68.
Cell stocks were thawed in a 37° C. water bath. Cells were washed three times in PBS. The cells were counted and adjusted to 5×10EE3 cells/50 μl (1×10EE5 cells/ml) in Assay Medium. A 50 μl aliquot of cells was transferred to each well in the assay plate.
Stocks of the test compounds and reference compounds were diluted to a concentration of […] in Assay Medium. Compounds were diluted 10-fold to give the following concentrations: 2×10EE-6 M, 2×10EE-7 M, 2×10EE-8 M; 2×10EE-9 M, 2×10EE-10 M, 2×10EE-11 M, 2×10EE-12 M and 2×10EE-13 M. For each compound a blank assay medium control was also included.
A 50 μl aliquot of compound or blank was transferred from the dilution plate to the assay plate. Compounds were tested at the following final concentrations: 1×10EE-6 M, 1×10EE-7 M, 1×10EE-8 M; 1×10EE-9 M, 1×10EE-10 M, 1×10EE-11 M and 1×10EE-12 M and 1×10EE-13 M.
The assay plate was incubated for 3 h in a 5% CO2 incubator at 37° C. The assay plate was removed from the incubator and allowed to stand at room temperature for 15 min. A 100 μl aliquot of steadylite plus reagent was added to each well of the assay plate (reagent is light sensitive). Each assay plate was covered with aluminum foil to protect it from light and shaken for 30 min at room temperature. Each assay plate was read in a Perkin Elmer TopCount NXT instrument.
The data from the TopCount instrument was transferred to GraphPad Prism software. The software performed a non-linear regression (log(agonist) vs response-Variable slope (four parameter)). EC50 values were calculated by the software and reported in pM.
Background: Reporter assays use an easily measured gene product as a stand-in for the process of interest.

Numbered stars: 1 amine (or outer) side, 2 acyl side, 3 side chain; on linkers, the order of the positions; unused ones are H or OH. Square brackets hold non-standard residues; d marks the D form. Side chains are listed from the residue outwards. Peptide text beside a SMILES is read from it. * marks the point of attachment. C18 diacid = O=C(O)CCCCCCCCCCCCCCCCC(=O)*; γGlu = O=C(O)[C@H](CCC(=O)[*:2])N[*:1]; AEEA = NCCOCCOCC(=O)O; Aib = CC(C)(N)C(=O)O

T1 sequence (P43220 24-463): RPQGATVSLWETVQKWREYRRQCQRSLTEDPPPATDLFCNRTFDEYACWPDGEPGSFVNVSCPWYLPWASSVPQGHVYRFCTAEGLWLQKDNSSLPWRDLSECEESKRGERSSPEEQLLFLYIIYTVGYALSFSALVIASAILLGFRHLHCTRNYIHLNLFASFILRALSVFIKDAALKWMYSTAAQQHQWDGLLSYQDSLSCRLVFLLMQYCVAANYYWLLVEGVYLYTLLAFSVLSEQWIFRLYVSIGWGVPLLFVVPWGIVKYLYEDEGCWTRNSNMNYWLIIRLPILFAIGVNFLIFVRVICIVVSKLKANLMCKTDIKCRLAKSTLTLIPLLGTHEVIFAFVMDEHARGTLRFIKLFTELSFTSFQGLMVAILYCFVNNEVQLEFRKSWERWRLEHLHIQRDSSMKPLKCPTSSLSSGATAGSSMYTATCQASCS

With `CC(C)C[C@H](NC(=O)[C@H](CC(C)C)NC(=O)[C@H](Cc1c[nH]c2ccccc12)NC(=O)[C@H](CCC(N)=O)NC(=O)[C@@H](NC(=O)[C@H](Cc1ccccc1)NC(=O)[C@H](CC(=O)O)NC(=O)[C@H](CCCCN)NC(=O)[C@H](C)NC(=O)[C@H](CCCNC(=N)N)NC(=O)[C@H](CCCNC(=N)N)NC(=O)[C@H](CCC(=O)O)NC(=O)[C@H](CC(=O)O)NC(=O)[C@H](CC(C)C)NC(=O)[C@H](Cc1ccc(O)cc1)NC(=O)[C@H](CCCCN)NC(=O)[C@H](CO)NC(=O)[C@H](CC(C)C)NC(=O)[C@H](CC(=O)O)NC(=O)[C@H](CO)NC(=O)[C@@H](NC(=O)[C@H](Cc1ccccc1)NC(=O)[C@@H](NC(=O)CNC(=O)[C@H](CCC(N)=O)NC(=O)C(C)(C)NC(=O)[C@@H](N)Cc1c[nH]cn1)[C@@H](C)O)[C@@H](C)O)C(C)C)C(=O)N[C@@H](CO)C(=O)N[C@@H](CCCCNC(=O)CC[C@H](NC(=O)CC[C@H](NC(=O)COCCOCCNC(=O)COCCOCCNC(=O)CC[C@H](NC(=O)CCCCCCCCCCCCCCCCC(=O)O)C(=O)O)C(=O)O)C(=O)O)C(N)=O` [Example 13, N^ε29-[(4S)-4-carboxy-4-[[(4S)-4-carboxy-4-[[2-[2-[2-[[2-[2-[2-[[(4S)-4-carboxy-4-(17-carboxyheptadecanoylamino)butanoyl]amino]ethoxy]ethoxy]acetyl]amino]ethoxy]ethoxy]acetyl]amino]butanoyl]amino]butanoyl]-[Aib2,Leu10,Glu16,Lys20,Leu27,Ser28,Lys29]-Glucagon amide] (H-H[Aib]QGTFTSDLSKYLDERRAKDFVQWLLSK([γGlu-γGlu-AEEA-AEEA-γGlu-C18 diacid])-NH2; N-terminus assumed), the 50% effective concentration (EC50) amounted to 0.006 nM.

Regarding `CC(C)C[C@H](NC(=O)[C@H](CC(C)C)NC(=O)[C@H](Cc1c[nH]c2ccccc12)NC(=O)[C@H](CCCNC(=N)N)NC(=O)[C@@H](NC(=O)[C@H](Cc1ccccc1)NC(=O)[C@H](CC(=O)O)NC(=O)[C@H](CCC(N)=O)NC(=O)[C@H](C)NC(=O)[C@H](CCCNC(=N)N)NC(=O)[C@H](CCCNC(=N)N)NC(=O)[C@@H](NC(=O)[C@H](CC(=O)O)NC(=O)[C@H](CC(C)C)NC(=O)[C@H](Cc1ccc(O)cc1)NC(=O)[C@H](CCCCN)NC(=O)[C@H](CO)NC(=O)[C@H](CC(C)C)NC(=O)[C@H](CC(=O)O)NC(=O)[C@H](CO)NC(=O)[C@@H](NC(=O)[C@H](Cc1ccccc1)NC(=O)[C@@H](NC(=O)CNC(=O)[C@H](CCC(N)=O)NC(=O)C(C)(C)NC(=O)[C@@H](N)Cc1c[nH]cn1)[C@@H](C)O)[C@@H](C)O)[C@@H](C)O)C(C)C)C(=O)N[C@@H](CO)C(=O)N[C@@H](CCCCNC(=O)CC[C@H](NC(=O)CC[C@H](NC(=O)COCCOCCNC(=O)COCCOCCNC(=O)CC[C@H](NC(=O)CCCCCCCCCCCCCCCCC(=O)O)C(=O)O)C(=O)O)C(=O)O)C(N)=O` [Example 15, N^ε29-[(4S)-4-carboxy-4-[[(4S)-4-carboxy-4-[[2-[2-[2-[[2-[2-[2-[[(4S)-4-carboxy-4-(17-carboxyheptadecanoylamino)butanoyl]amino]ethoxy]ethoxy]acetyl]amino]ethoxy]ethoxy]acetyl]amino]butanoyl]amino]butanoyl]-[Aib2,Leu10,Thr16,Arg24,Leu27,Ser28,Lys29]-Glucagon amide] (H-H[Aib]QGTFTSDLSKYLDTRRAQDFVRWLLSK([γGlu-γGlu-AEEA-AEEA-γGlu-C18 diacid])-NH2; N-terminus assumed), the EC50 is 0.02 nM.

As usually defined, the EC50 is the concentration giving half of the maximal effect.

The values are drawn from US9474790B2, “Stable, protracted GLP-1/glucagon receptor co-agonists for medical use” (Novo Nordisk A/S, priority 2013, dated 2016).
